Measured values taken from patent US20040014942A1, “Mutant strains capable of producing chemically diversified proteins by incorporation of non-conventional amino acids” (priority 2000, published 2004).

Legend:
[1] = test system: strain β5366 (wild-type valS allele); assay: Sensitivity to non-canonical amino acids, growth inhibition zone on Petri dishes; assay type: cell-based, E. coli; details: 100 mM solution in central well
Description: (1) 100 mM L-2-amino-butyrate
(2) 100 mM L-2-amino-valerate
(3) 100 mM L-2-3-diamino-propionate

[2] = test system: twelve clones from serial propagation of β5366; assay: Growth factor test of clones after serial culture; assay type: cell-based, E. coli; details: glucose mineral MS medium dishes
Description: The cells are then washed twice with deoxygenated mineral MS medium. A deoxygenated nutritive medium containing 10 ml glucose mineral MS medium to which 1.5 mM cysteine is added is inoculated at 1/100 using washed cells. The cells are then cultivated in anaerobiosis for 24 hours at 30° C. and a fresh tube containing 10 ml deoxygenated cysteine glucose mineral MS medium is inoculated with a 1/100 dilution of the culture at the preceding stationary phase. This procedure is repeated 26 times. At the end of this serial propagation, 12 clones from the liquid culture are isolated on dishes of thymidine (0.3 mM) glucose mineral MS medium (2 g/l) in aerobiosis and kept in suspension in the same liquid medium at −80° C. The twelve clones are tested on dishes containing glucose mineral MS medium with nutritional factors added.

[3] = test system: strain β5366 (thyA:Val146); assay: Growth over a cysteine diffusion gradient; assay type: cell-based, E. coli
Description: (§1) The plasmid pTS1 thus obtained propagates the allele thyA:Val146, in which the position 146 occupied in the wild-type thyA gene by the codon UGC of cysteine is occupied by the codon GUA of valine. The plasmid pTS1 is introduced by transformation, carried out according to the method of Sambrook and coll. (1989), in the strain ΔthyA of E. coli K12, β1308 (Lemeignan and coll., 1993), whereof the chromosome gene of the thymidylate synthase, thyA, is deleted. […] Thus, everything happens as if the cysteine could infiltrate the active site of the valyl-tRNA synthetase to form erroneous Cys-tRNA^val's capable of correcting the replacement of cysteine by valine in the active site of the thymidylate synthase. The excess valine would prevent the formation of these erroneous Cys-tRNA^val's.

[4] = test system: strain β1308 (ΔthyA); assay: Growth over a cysteine diffusion gradient; assay type: cell-based, E. coli; details: same conditions
Description: as §1

[5] = test system: adapted strain β8146; assay: Phenotypic suppression by metabolic precursors of cysteine; assay type: cell-based, E. coli; details: 3 mM (L-thiazolidine4-carboxylate acid 2 mM), instead of thymidine or thymine
Description: (§2) The nutritional requirement for cysteine of the adapted strains β8144 and β8146 is utilised to characterise metabolic precursors which can replace cysteine in the culture medium without giving rise to degradation by oxidation. […] However, the addition of none of these substances allows the growth of the strain β1308 leading to chromosomal deletion of the gene thyA of thymidylate synthase, thus excluding their contamination by traces of thymine or thymidine.

[6] = test system: adapted strain β8144; assay: as above; assay type: cell-based, E. coli; details: 3 mM (L-thiazolidine4-carboxylate acid 2 mM), instead of thymidine or thymine
Description: as §2

[7] = test system: strains β5479, β5485 and β5486; assay: Phenotype of new valS mutants from mutator strain; assay type: cell-based, Escherichia coli
Description: Three of these clones served to prepare lysates of the phage P1, which were used to transduce the strain β5366, by selecting for resistance to kanamycin, following the procedure of Example 5. […] The locus valS of the three strains β5479, β5485 and β5486, each corresponding to an SCC-suppressible transducer obtained from one of the three lysates was amplified by PCR and sequenced as described in Example 3. A different localised mutation was found for each of the three strains, viz. Arg 223 changed into His in the strain β5479, Val 276 changed into Ala in the strain β5485 and Asp 230 changed into Asn in the strain β5486.

[8] = test system: strain β5455; assay: Growth with S-carbamyl-L-cysteine without thymine or thymidine; assay type: cell-based, E. coli; details: 3 mM S-carbamyl-L-cysteine
Description: A lysate of the phage P1 harvested from such a clone is used to transduce the strain β5366 carrying the plasmidic allele thyA:Val146. […] The other half of the transducers are incapable of this, and require thymine or thymidine to proliferate, just like the strain β5366. This proportion of the phenotypes is in accordance with the genetic distance between the loci valS and nrdD (0.4 mn). Thus, suppression of the false-sense mutation of thyA Cys->Val by a low concentration of exogenous cysteine could result from an alteration of the gene of valyl-tRNA synthetase. […] An A changed into a C causes replacement of the threonine at position 222 by proline, thus confirming the fixation of a genetic alteration in the gene valS of the strain β5455.

[9] = test system: strain β5419 with mutator allele dnaQ::miniTn10; assay: Selection on solid medium with S-carbamyl-L-cysteine; assay type: cell-based, E. coli; details: dishes 0 to 8 mM, without thymidine, 96 hours at 30°, mutator allele only
Description: The strain β5366 carrying the false-sense allele thyA:Val146 on the plasmid pTS1 is transduced with a lysate of the phage P1 harvested on an auxiliary strain of E. coli (β7170, Bouzon et al., 1997) in the chromosome of which a marker of resistance to kanamycin had been introduced at the locus nrdD, neighbour of the locus valS of the gene of valyl-tRNA synthetase, thus producing the strain β5419. A mutator allele of the gene dnaQ is introduced extemporaneously by transduction of the strain β5419 using a lysate of the phage P1 harvested on an auxiliary strain (MS2131, Shapiro, 1990) carrying a marker of resistance to the tetracycline dnaQ::miniTn10. […] After 24 hours, the cells are harvested, and washed twice in an identical volume of culture medium without thymidine. A volume of 0.1 ml of the resultant suspension, corresponding to approximately 10^8 bacteria, is spread on the surface of a series of Petri dishes containing a concentration of S-carbamyl-L-cysteine varying between 0 and 8 mM by adding 1 mM increments of the glucose mineral MS medium (2 g/l). The same procedure is applied to the non-mutator strain β5419, and to the wild-type gene dnaQ. All the Petri dishes are incubated for 96 hours at 30°. […]

[10] = test system: strain β5274 (thyA:Ile146); assay: Phenotypic suppression by cysteine; assay type: cell-based, E. coli; details: 0.1 mM isoleucine
Description: The plasmid pTS2 thus obtained propagates the allele thyA:Ile146, in which the position 146 occupied in the wild-type thyA gene by the codon UGC of cysteine is occupied by the codon AUA of isoleucine. The strain propagating the plasmidic allele thyA:Ile146, […], proves to require the nutritional addition of thymine, thymidine or cysteine in excess, as in the case of the strain β5366. Phenotypic suppression of the strain β5274 by cysteine is abolished by 0.1 mM isoleucine, just as that of the strain β5366 is abolished by valine. Thus everything happens as if the isoleucyl-tRNA synthetase was capable of forming erroneous Cys-tRNA^Ile's in the presence of an excess of cysteine, and this erroneous formation was prevented by the presence of an excess of isoleucine.

NC[C@H](N)C(=O)O [L-2-3-diamino-propionate]
effect on growth [1]: without effect

CCC[C@H](N)C(=O)O [L-2-amino-valerate]
effect on growth [1]: without effect

N[C@@H](CS)C(=O)O [L-cysteine]
cysteine concentration in culture medium replacing thymine or thymidine as growth factor [2]: at least 1.5 mM | growth over a cysteine diffusion gradient ([3]; 30° C., glucose mineral MS medium, central well 0.1 ml of 400 mM L-cysteine): marginal growth | growth over a cysteine diffusion gradient [4]: does not give rise to any detectable growth

O=C(O)[C@@H]1CSCN1 [L-thiazolidine4-carboxylate acid]
replacing cysteine as a growth factor [5]: capable of replacing cysteine as a growth factor | replacing cysteine as a growth factor [6]: capable of replacing cysteine as a growth factor

NC(=O)SC[C@H](N)C(=O)O [S-carbamyl-L-cysteine]
replacing cysteine as a growth factor [5]: capable of replacing cysteine as a growth factor | replacing cysteine as a growth factor [6]: capable of replacing cysteine as a growth factor | growth in glucose mineral solid medium without thymidine ([7]; 3 mM SCC, approximately half the transducers): capable of growing | growth in the absence of thymine or thymidine [8]: capable of growing | concentration of S-carbamyl-L-cysteine at which colonies appear [9]: exceeding 2 mM

CSC[C@H](N)C(=O)O [S-methyl-L-cysteine]
replacing cysteine as a growth factor [5]: capable of replacing cysteine as a growth factor | replacing cysteine as a growth factor [6]: capable of replacing cysteine as a growth factor

CC[C@H](C)[C@H](N)C(=O)O [isoleucine]
effect on phenotypic suppression by cysteine [10]: abolished

CC(C)[C@H](N)C(=O)O [valine]
effect on growth over a cysteine gradient ([3]; 0.1 mM valine added to Petri dish medium): abolishes the growth

L-2-amino-butyrate
effect on growth [1]: without effect | sensitivity to amino-butyrate ([7]; clones suppressing false-sense mutant Cys 146 Val of thyA): shows sensitivity
